# In US10428081B2, “EGFR inhibitor, preparation method and use thereof” (Shanghai Hansoh Biomedical Co., Ltd., priority 2014, dated 2019):
# Columns and labels:
# [1] = target: exon 20 T790M mutant-type EGFR enzyme (Homo sapiens, UniProt P00533, T790M); assay: Enzymologic experiment of T790M mutant-type EGFR (TR-FRET); format: biochemical; conditions: for IC50: T790M EGFR enzyme, TR-FRET, ATP 1 to 10 uM; for Selectivity of wild-type/mutant-type: ratio WT IC50 / T790M IC50, enzyme
# In short: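 Compound dilutions preincubated 10 min at room temperature; reaction ended with EDTA, then labeled antibody added for 1 h at room temperature. Inhibition rates derived from TR-FRET fluorescence signal, and IC50 obtained by curve fitting across concentrations.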
# [2] = target: wild-type EGFR enzyme (Homo sapiens, UniProt P00533); assay: Enzymologic experiment of wild-type (WT) EGFR (TR-FRET); format: biochemical; conditions: ATP 0.1 to 5 uM
# wild-type EGFR enzyme, sequence (P00533 25-1210): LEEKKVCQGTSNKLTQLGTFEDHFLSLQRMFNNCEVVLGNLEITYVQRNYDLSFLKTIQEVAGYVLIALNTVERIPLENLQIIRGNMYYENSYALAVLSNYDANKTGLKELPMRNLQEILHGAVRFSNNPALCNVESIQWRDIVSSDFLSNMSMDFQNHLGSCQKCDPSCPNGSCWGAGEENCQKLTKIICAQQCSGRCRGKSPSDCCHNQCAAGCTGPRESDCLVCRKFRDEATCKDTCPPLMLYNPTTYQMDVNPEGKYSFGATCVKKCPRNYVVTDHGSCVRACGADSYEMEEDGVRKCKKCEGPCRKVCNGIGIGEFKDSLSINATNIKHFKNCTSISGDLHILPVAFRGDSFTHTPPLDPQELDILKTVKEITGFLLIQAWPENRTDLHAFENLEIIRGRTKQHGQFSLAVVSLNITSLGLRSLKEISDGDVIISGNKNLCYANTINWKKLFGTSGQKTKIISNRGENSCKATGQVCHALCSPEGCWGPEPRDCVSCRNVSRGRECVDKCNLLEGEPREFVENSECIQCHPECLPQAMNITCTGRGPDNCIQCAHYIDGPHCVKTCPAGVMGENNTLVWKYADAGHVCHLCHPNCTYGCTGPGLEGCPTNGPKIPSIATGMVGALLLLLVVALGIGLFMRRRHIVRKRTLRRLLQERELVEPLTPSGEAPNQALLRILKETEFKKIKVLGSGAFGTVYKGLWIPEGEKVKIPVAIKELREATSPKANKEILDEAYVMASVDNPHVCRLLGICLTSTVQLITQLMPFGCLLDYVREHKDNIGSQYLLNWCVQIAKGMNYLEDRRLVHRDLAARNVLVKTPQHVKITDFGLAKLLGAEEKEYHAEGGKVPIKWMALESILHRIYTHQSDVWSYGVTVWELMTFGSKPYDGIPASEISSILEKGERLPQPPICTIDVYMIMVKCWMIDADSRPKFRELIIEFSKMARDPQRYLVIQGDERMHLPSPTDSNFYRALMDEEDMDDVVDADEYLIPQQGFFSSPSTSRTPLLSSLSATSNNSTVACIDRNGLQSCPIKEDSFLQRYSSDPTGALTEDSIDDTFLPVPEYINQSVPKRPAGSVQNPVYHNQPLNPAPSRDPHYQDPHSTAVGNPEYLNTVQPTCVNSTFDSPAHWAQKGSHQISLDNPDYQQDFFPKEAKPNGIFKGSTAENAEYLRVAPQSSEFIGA
# In short: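 Wild-type EGFR (0.1 to 1 nM final) preincubated with serially diluted compound for 10 minutes at room temperature; reaction stopped with EDTA, then labelled antibody added for 1 hour at room temperature. TR-FRET signal converted to inhibition rates; IC50 from curve fitting across concentrations.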
# [3] = tested on: NCI-H1975 cells; assay: Inhibition of NCI-H1975 cell proliferation (CellTiter-Glo); format: cell-based; conditions: for IC50: Homo sapiens, NCI-H1975, 72 h, NCI-H1975 cell proliferation, 72 hours, CellTiter-Glo, read-out: EGFR IC50 (nM) H1975; for Selectivity of wild-type/mutant-type: ratio A431 IC50 / H1975 IC50, cells
# [4] = tested on: A431 cells; assay: Inhibition of A431 cell proliferation (CellTiter-Glo); format: cell-based; conditions: Homo sapiens, A-431, 72 h, read-out: EGFR IC50 (nM) A431
# In short: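 Viability read as CellTiter-Glo luminescence; IC50 by curve fitting of inhibition rates.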
# exon 20 T790M mutant-type EGFR enzyme, sequence (P00533 25-1210 T790M): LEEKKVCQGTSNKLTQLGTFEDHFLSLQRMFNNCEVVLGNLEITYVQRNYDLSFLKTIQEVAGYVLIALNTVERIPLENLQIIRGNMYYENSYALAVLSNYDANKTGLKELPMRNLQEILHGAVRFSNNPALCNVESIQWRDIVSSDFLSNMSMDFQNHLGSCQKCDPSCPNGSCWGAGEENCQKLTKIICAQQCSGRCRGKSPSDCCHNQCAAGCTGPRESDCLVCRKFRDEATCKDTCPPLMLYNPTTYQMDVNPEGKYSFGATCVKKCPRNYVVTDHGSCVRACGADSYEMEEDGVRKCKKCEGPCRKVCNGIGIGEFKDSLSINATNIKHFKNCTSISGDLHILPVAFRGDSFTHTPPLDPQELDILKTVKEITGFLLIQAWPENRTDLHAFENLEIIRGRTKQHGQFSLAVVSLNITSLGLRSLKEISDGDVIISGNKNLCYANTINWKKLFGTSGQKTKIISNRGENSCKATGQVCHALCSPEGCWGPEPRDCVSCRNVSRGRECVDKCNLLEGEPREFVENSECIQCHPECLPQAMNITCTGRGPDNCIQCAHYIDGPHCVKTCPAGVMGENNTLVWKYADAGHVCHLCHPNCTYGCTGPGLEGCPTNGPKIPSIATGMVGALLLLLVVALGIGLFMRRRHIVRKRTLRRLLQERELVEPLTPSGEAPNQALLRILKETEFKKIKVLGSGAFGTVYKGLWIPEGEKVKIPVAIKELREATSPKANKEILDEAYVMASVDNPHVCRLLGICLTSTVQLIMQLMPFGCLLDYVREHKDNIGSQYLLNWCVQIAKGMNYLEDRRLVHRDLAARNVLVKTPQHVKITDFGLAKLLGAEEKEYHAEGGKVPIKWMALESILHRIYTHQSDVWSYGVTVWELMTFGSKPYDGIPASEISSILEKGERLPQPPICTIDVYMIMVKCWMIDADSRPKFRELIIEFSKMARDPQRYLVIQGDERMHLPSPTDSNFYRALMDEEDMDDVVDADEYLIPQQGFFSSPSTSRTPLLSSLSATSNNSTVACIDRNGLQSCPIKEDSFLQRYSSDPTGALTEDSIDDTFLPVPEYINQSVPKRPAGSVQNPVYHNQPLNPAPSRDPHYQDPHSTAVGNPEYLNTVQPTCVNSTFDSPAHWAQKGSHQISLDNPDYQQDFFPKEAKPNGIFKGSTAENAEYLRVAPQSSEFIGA
IC50 [1],Selectivity of wild-type/mutant-type [1],IC50 [2],IC50 [3],IC50 [4],SMILES,Selectivity of wild-type/mutant-type [3]
0.17 nM,37.06,6.3 nM,1.93 nM,128 nM,"C=CC(=O)Nc1cc(Nc2ncc(C(F)(F)F)c(-n3ncc4cc(OC)ccc43)n2)c(OC)cc1N(C)CCN(C)C [Example 49, N-(2-((2-(dimethylamino)ethyl)(methyl)amino)-4-methoxy-5-((4-(5-methoxy-1H-indazol-1-yl)-5-(trifluoromethyl)pyrimidin-2-yl)amino)phenyl)acrylamide]",66.48
0.76 nM,36.84,28 nM,2.76 nM,98.3 nM,C=CC(=O)Nc1cc(Nc2ncc(C(F)(F)F)c(-n3nc(C)c4cc(OC)ccc43)n2)c(OC)cc1N(C)CCN(C)C [Example 107],35.61
0.23 nM,7.83,1.8 nM,3.16 nM,119 nM,"C=CC(=O)Nc1cc(Nc2nccc(-c3cn(S(=O)(=O)N(C)C)c4ccccc34)n2)c(OC)cc1N(C)CCN1CCCC1 [Example 142, N-(5-((4-(1-(N,N-dimethylsulfamoyl)-1H-indol-3-yl)pyrimidin-2-yl)amino)-4-methoxy-2-(methyl(2-(pyrrolidin-1-yl)ethyl)amino)phenyl)acrylamide]",37.53
0.71 nM,39.30,27.9 nM,93.7 nM,374 nM,"C=CC(=O)Nc1cc(Nc2ncc(Cl)c(-n3nc(CC)c4cc(C#N)ccc43)n2)c(OC)cc1N(C)CCN(C)C [Example 118, N-(5-((5-chloro-4-(5-cyano-3-ethyl-1H-indazol-1-yl)pyrimidin-2-yl)amino)-2-((2-(dimethylamino)ethyl)(methyl)amino)-4-methoxyphenyl)acrylamide]",3.99
0.33 nM,6.16,2.03 nM,2.94 nM,149 nM,"C=CC(=O)Nc1cc(Nc2nccc(-n3cnc4ccc(OC)cc43)n2)c(OC)cc1N(C)CCN(C)C [Example 60, N-(2-((2-(dimethylamino)ethyl)(methyl)amino)-4-methoxy-5-((4-(6-methoxy-1H-benzo[d]imidazol-1-yl)pyrimidin-2-yl)amino)phenyl)acrylamide]",50.82
0.36 nM,41.53,14.9 nM,1.87 nM,71 nM,"C=CC(=O)Nc1cc(Nc2ncc(Cl)c(-n3cnc4cc(OC)ccc43)n2)c(OC)cc1N(C)CCN(C)C [Example 63, N-(5-((5-chloro-4-(5-methoxy-1H-benzo[d]imidazol-1-yl)pyrimidin-2-yl)amino)-2-((2-(dimethylamino)ethyl)(methyl)amino)-4-methoxyphenyl)acrylamide]",37.97
0.2 nM,5.00,1 nM,2.92 nM,154 nM,"C=CC(=O)Nc1cc(Nc2ncc(Cl)c(-c3cn(C)c4cc(OC)ccc34)n2)c(OC)cc1N(C)CCN(C)C [Example 98, N-(5-((5-chloro-4-(6-methoxy-1-methyl-1H-indol-3-yl)pyrimidin-2-yl)amino)-2-((2-(dimethylamino)ethyl)(methyl)amino)-4-methoxyphenyl)acrylamide]",52.71
0.18 nM,2.78,0.5 nM,1.28 nM,141 nM,"C=CC(=O)Nc1cc(Nc2nccc(-c3c[nH]c4cc(OC)ccc34)n2)c(OC)cc1N(C)CCN(C)C [Example 97, N-(2-((2-(dimethylamino)ethyl)(methyl)amino)-4-methoxy-5-((4-(6-methoxy-1H-indol-3-yl)pyrimidin-2-yl)amino)phenyl)acrylamide]",109.92
1.14 nM,4.31,4.91 nM,6.32 nM,106 nM,"C=CC(=O)Nc1cc(Nc2nccc(-c3cn(C)c4ccc(F)c(F)c34)n2)c(OC)cc1N(C)CCN(C)C [Example 90, N-(5-((4-(4,5-difluoro-1-methyl-1H-indol-3-yl)pyrimidin-2-yl)amino)-2-((2-(dimethylamino)ethyl)(methyl)amino)-4-methoxyphenyl)acrylamide]",16.72
1.01 nM,13.58,13.7 nM,6.22 nM,690 nM,"C#CCn1cc(-c2ccnc(Nc3cc(NC(=O)C=C)c(N(C)CCNC)cc3OC)n2)c2ccccc21 [Example 129, N-(4-methoxy-2-(methyl(2-(methylamino)ethyl)amino)-5-((4-(1-(prop-2-yn-1-yl)-1H-indol-3-yl)pyrimidin-2-yl)amino)phenyl)acrylamide]",110.93
0.78 nM,5.55,4.33 nM,11.2 nM,336 nM,"C=CC(=O)Nc1cc(Nc2nccc(-n3ncc4ccc(OC)cc43)n2)c(OC)cc1N(C)CCN1CCCC1 [Example 136, N-(4-methoxy-5-((4-(6-methoxy-1H-indazol-1-yl)pyrimidin-2-yl)amino)-2-(methyl(2-(pyrrolidin-1-yl)ethyl)amino)phenyl)acrylamide]",30.04
0.36 nM,6.14,2.21 nM,2.75 nM,71.2 nM,"C=CC(=O)Nc1cc(Nc2nccc(-n3nc(C)c4ccc(OC)cc43)n2)c(OC)cc1N(C)CCN(C)C [Example 54, N-(2-((2-(dimethylamino)ethyl)(methyl)amino)-4-methoxy-5-((4-(6-methoxy-3-methyl-1H-indazol-1-yl)pyrimidin-2-yl)amino)phenyl)acrylamide]",25.90
0.38 nM,6.58,2.5 nM,7.13 nM,406 nM,"C=CC(=O)Nc1cc(Nc2nccc(-n3nc(C4CC4)c4ccccc43)n2)c(OC)cc1N(C)CCN(C)C [Example 44, N-(5-((4-(3-cyclopropyl-1H-indazol-1-yl)pyrimidin-2-yl)amino)-2-((2-(dimethylamino)ethyl)(methyl)amino)-4-methoxyphenyl)acrylamide]",56.93
0.44 nM,5.23,2.3 nM,2.98 nM,88.2 nM,"C=CC(=O)Nc1cc(Nc2nccc(-c3cn(C)c4cc(OC)ccc34)n2)c(OC)cc1N(C)CCNC [Example 127, N-(4-methoxy-5-((4-(6-methoxy-1-methyl-1H-indol-3-yl)pyrimidin-2-yl)amino)-2-(methyl(2-(methylamino)ethyl)amino)phenyl)acrylamide]",29.58
3.45 nM,13.61,46.9 nM,15.6 nM,257 nM,"C=CC(=O)Nc1cc(Nc2nccc(-n3ncc4ccc(C#N)cc43)n2)c(OC)cc1N(C)CCN(C)C [Example 112, N-(5-((4-(6-cyano-1H-indazol-1-yl)pyrimidin-2-yl)amino)-2-((2-(dimethylamino)ethyl)(methyl)amino)-4-methoxyphenyl)acrylamide]",16.51
1.54 nM,10.56,16.3 nM,7.08 nM,688 nM,"C=CC(=O)Nc1cc(Nc2nccc(-n3nc(C)c4cc(C#N)ccc43)n2)c(OC)cc1N(C)CCN(C)C [Example 56, N-(5-((4-(5-cyano-3-methyl-1H-indazol-1-yl)pyrimidin-2-yl)amino)-2-((2-(dimethylamino)ethyl)(methyl)amino)-4-methoxyphenyl)acrylamide]",97.25
0.49 nM,17.14,8.4 nM,114 nM,890 nM,"COc1cc(N(C)CCN(C)C)c(NC(=O)/C=C/CN(C)C)cc1Nc1nccc(-c2cn(C3CC3)c3ccccc23)n1 [Example 122, (E)-N-(5-((4-(1-cyclopropyl-1H-indol-3-yl)pyrimidin-2-yl)amino)-2-((2-(dimethylamino)ethyl)(methyl)amino)-4-methoxyphenyl)-4-(dimethylamino)but-2-enamide]",7.84
1.63 nM,231.9,378 nM,3.73 nM,321 nM,"C=CC(=O)Nc1cc(Nc2ncc(C(F)(F)F)c(-n3cnc4cc(OC)ccc43)n2)c(OC)cc1N(C)CCN(C)C [Example 67, N-(2-((2-(dimethylamino)ethyl)(methyl)amino)-4-methoxy-5-((4-(5-methoxy-1H-benzo[d]imidazol-1-yl)-5-(trifluoromethyl)pyrimidin-2-yl)amino)phenyl)acrylamide]",85.95
